Measurements taken from EP0341019A2, “Polyether antibiotic” (priority 1988, dated 1989).
Values after ≈ are worked out from the molar mass of the structure shown.

Experiments:
[1] = system: Pseudomonas aeruginosa PS18; format: cell-based; conditions: PS18, 24 h
[2] = system: adult stablefly; experiment: insecticide test
Source text: (§1) The A82810 compounds are also useful as insecticides. For example, A82810 is active against southern armyworm, spider mite and blowfly larvae at levels as low as 100 ppm and against adult stablefly at levels as low as 50 ppm.

[3] = system: southern armyworm; experiment: insecticide test
Source text: as §1

[4] = system: blowfly larvae; experiment: insecticide test
Source text: as §1

[5] = system: spider mite; experiment: insecticide test
Source text: as §1

[6] = system: Enterobacter aerogenes EB17; format: cell-based; conditions: Klebsiella aerogenes, EB17, 24 h
[7] = system: Friend leukemia virus; experiment: antiviral tissue-culture test; format: cell-based
[8] = system: Staphylococcus aureus V41; format: cell-based; conditions: V41, 24 h
[9] = system: Propionibacterium acnes 79; format: cell-based; conditions: Cutibacterium acnes, 79, 24 h

`CC[C@@H](O)[C@]1(C)C[C@H](C)[C@@](O)([C@H]2C[C@H](C)[C@H]([C@]3(C)C[C@@H](O[C@H]4CC[C@H](OC)[C@@H](C)O4)[C@H]([C@]4(C)CC[C@@]5(O[C@H]([C@@H](C)[C@@H](OC)[C@H](C)C(=O)O)[C@H](C)[C@@H](OC)[C@H]5C)O4)O3)O2)O1` [Example A82810] was tested, and the MIC [1] was > 128 µg/mL, the “active at levels as low as” value [2] was 50 ppm and the “active at levels as low as” value [3] was 100 ppm. The “active at levels as low as” value [4] was 100 ppm, the “active at levels as low as” value [5] was 100 ppm and the MIC [6] was 8 µg/mL (≈ 9.49 µM). For the same compound, the “active at levels as low as” value [7] was 0.04 µg/mL, the MIC [8] was 1 µg/mL (≈ 1.19 µM) and the MIC [9] was 2 µg/mL (≈ 2.37 µM).
